# Measured values from US10253002B2, “Compounds and methods of treating infections” (Neoculi Pty Ltd., priority 2013, dated 2019).
# Several values for one entry are separate records, joined by “and”; a condition that tells them apart may be missing. Equal values may be shown once.
# How the values were obtained:
# Assay in all cases: Broth microdilution MIC, Example 7 (NCL812 and analogues)
# VRE = type: cell-based, Enterococcus spp.; conditions: 24 hours, 1st and 2nd replicate rows; for MIC (μg/ml) at 24 hours, VRE 1: isolate VRE 1; for MIC (μg/ml) at 24 hours, VRE 2: isolate VRE 2
# Description: (§1) Minimum inhibitory concentrations (μg/ml) were determined using the broth microdilution method recommended by the Clinical and Laboratory Standards Institute (CLSI). MIC breakpoints were determined by visual assessment and then confirmed using an ELISA plate reader, measuring absorbance levels at 600 nm. Bacterial growth (turbidity) in the wells with antimicrobial was compared with the amount of growth (turbidity) in the growth-control well (containing no antimicrobial). All isolates were tested in duplicate, if there was a difference of greater than one two-fold dilution in the results, the test was repeated a third time. The purity of the isolates was closely monitored during testing by subculturing the prepared bacterial inoculum onto SBA (sheep blood agar). […] The MIC50, MIC20 and MIC range (minimum and maximum) were calculated for each of the bacterial groups.
# (§2) MICs were determined against two MRSA strains, two VRE strains and one strain each of E. coli and Pseudomonas aeruginosa.
# MRSA = type: cell-based, Staphylococcus aureus; conditions: 24 hours, 1st and 2nd replicate rows; for MIC (μg/ml) at 24 hours, MRSA 1: isolate MRSA 1; for MIC (μg/ml) at 24 hours, MRSA 2: isolate MRSA 2
# Description: as §1, §2
# Pseudomonas aeruginosa = type: cell-based; conditions: 24 hours; 1st and 2nd replicate rows
# Escherichia coli = type: cell-based; conditions: 24 hours; 1st and 2nd replicate rows
SMILES,"MIC (μg/ml) at 24 hours, VRE 1 (VRE)","MIC (μg/ml) at 24 hours, VRE 2 (VRE) [µg/mL]","MIC (μg/ml) at 24 hours, MRSA 1 (MRSA) [µg/mL]","MIC (μg/ml) at 24 hours, MRSA 2 (MRSA) [µg/mL]","MIC (μg/ml) at 24 hours, P. aeruginosa (Pseudomonas aeruginosa) [µg/mL]","MIC (μg/ml) at 24 hours, E. coli (Escherichia coli) [µg/mL]"
NC(=O)N/N=C/c1ccc(Cl)cc1 [NCL014],>128 µg/mL,>128,>128,>128,>128,>128
Cl.N=C(N)N/N=C/c1ccccc1F [NCL016],>128 µg/mL,>128,>128,>128,>128,>128
Cl.N=C(N)NN=Cc1cccc(F)c1 [NCL017],>128 µg/mL,>128,>128,>128,>128,>128
Cc1cccc(C=NNC(=O)NN=Cc2cccc(C)c2)c1 [NCL019],>128 µg/mL,>128,>128,>128,>128,>128
Cl.N#Cc1ccc(C=NNC(=N)NN=Cc2ccc(C#N)cc2)cc1 [NCL024],>128 µg/mL,>128,>128,>128,>128,>128
Cl.N#Cc1cccc(C=NNC(=N)NN=Cc2cccc(C#N)c2)c1 [NCL026],>128 µg/mL,>128,>128,>128,>128,>128
COc1ccc(/C=N/NC(=N)N/N=C/c2ccc(OC)cc2)cc1.Cl [NCL027],>128 µg/mL,>128,>128,>128,>128,>128
Cl.N#Cc1ccc(/C=N/NC(=N)N)cc1 [NCL031],>128 µg/mL,>128,>128,>128,>128,>128
Cl.N#Cc1ccccc1/C=N/NC(=N)N [NCL032],>128 µg/mL,>128,>128,>128,>128,>128
Cl.N#Cc1cccc(/C=N/NC(=N)N)c1 [NCL033],>128 µg/mL,>128,>128,>128,>128,>128
COc1ccccc1/C=N/NC(=N)N.Cl [NCL034],>128 µg/mL,>128,>128,>128,>128,>128
Cl.N=C(NN=Cc1cccc(C(F)(F)F)c1)NN=Cc1cccc(C(F)(F)F)c1 [NCL037],>126 µg/mL and >128 µg/mL,>128,>128,>128,>128,>128
Cl.N=C(N)N/N=C/c1ccccc1C(F)(F)F [NCL042],>128 µg/mL,>128,>128,>128,>128,>128
Cc1ccccc1/C=N/NC(=N)N.Cl [NCL045],>128 µg/mL,>128,>128,>128,>128,>128
Cc1cccc(/C=N/NC(=N)N)c1.Cl [NCL046],>128 µg/mL,>128,>128,>128,>128,>128

# The remaining lines, values ahead:
"MIC (μg/ml) at 24 hours, VRE 1 (VRE)","MIC (μg/ml) at 24 hours, VRE 2 (VRE) [µg/mL]","MIC (μg/ml) at 24 hours, MRSA 1 (MRSA) [µg/mL]","MIC (μg/ml) at 24 hours, MRSA 2 (MRSA) [µg/mL]","MIC (μg/ml) at 24 hours, P. aeruginosa (Pseudomonas aeruginosa) [µg/mL]","MIC (μg/ml) at 24 hours, E. coli (Escherichia coli) [µg/mL]",SMILES
>128 µg/mL,128,>128,>128,>128,>128,Cl.N=C(N)N/N=C/c1ccccc1Cl [NCL015]
>128 µg/mL,>128,>128,>128,>128,>128,Cc1ccccc1/C=N/NC(=O)N/N=C/c1ccccc1C [NCL018]
>128 µg/mL,>128,>128,>128,>128,>128,Cl.N=C(N/N=C/c1ccccc1Cl)N/N=C/c1ccccc1Cl [NCL020]
>128 µg/mL,>128,>128,>128,>128,>128,Cl.N=C(NN=Cc1ccccc1F)NN=Cc1ccccc1F [NCL022]
>128 µg/mL,>128,>128,>128,>128,>128,Cl.N#Cc1ccccc1C=NNC(=N)NN=Cc1ccccc1C#N [NCL025]
>128 µg/mL,128,>128,>128,>128,>128,COc1ccccc1C=NNC(=N)NN=Cc1ccccc1OC.Cl [NCL028]
>128 µg/mL,>128,>128,>128,>128,>128,Cl.N=C(N/N=C/c1ccccc1C(F)(F)F)N/N=C/c1ccccc1C(F)(F)F [NCL036]
